Results from PubChem BioAssay AID248 (DTP/NCI, 2004).
“And” between values parts separate entries of the source, which are not always exact repeats. Equal values may be shown once. Toxic doses and inconclusive results are not listed.

Tested on: L1210 leukemia ip in BDF1 mice, survival T/C
Assay: NCI In Vivo Anticancer Drug Screen. Data for tumor model L1210 Leukemia (intraperitoneal) in B6D2F1 (BDF1) mice
Conditions: higher = longer survival
Procedure, shortened: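 Mice bearing the transplanted tumor received compound or vehicle. Survival of the treated group was divided by that of the vehicle-treated control group to give the ratio.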

[1] = endpoint: mean survival time, dose: 100.0 mg/kg/injection, schedule: Q04DX003 (ip), vehicle: Klucel (hydroxypropylcellulose) (HPC)
[2] = endpoint: mean survival time, dose: 200.0 mg/kg/injection, schedule: Q04DX003 (ip), vehicle: Klucel (hydroxypropylcellulose) (HPC)

Compound: COc1ccc(C[C@H](N)C(=O)NC2C(CO)OC(n3cnc4c(N(C)C)ncnc43)C2O)cc1 (stereo partly drawn)
- T/C (endpoint: mean survival time, dose: 5.0 mg/kg/injection, schedule: Q01DX001 (ip), vehicle: saline): 103 % of control
- T/C (endpoint: mean survival time, dose: 9.94 mg/kg/injection, schedule: Q01DX Z (ip), vehicle: carboxymethylcellulose (CMC)): 108 % of control
- T/C (endpoint: mean survival time, dose: 10.0 mg/kg/injection, schedule: Q01DX001 (ip), vehicle: saline): 97 % of control
- T/C (endpoint: mean survival time, dose: 19.88 mg/kg/injection, schedule: Q01DX Z (ip), vehicle: carboxymethylcellulose (CMC)): 117 % of control
- T/C (endpoint: mean survival time, dose: 20.0 mg/kg/injection, schedule: Q01DX001 (ip), vehicle: saline): 95 % of control
- T/C (endpoint: mean survival time, dose: 39.75 mg/kg/injection, schedule: Q01DX Z (ip), vehicle: carboxymethylcellulose (CMC)): 112 % of control
- T/C (endpoint: mean survival time, dose: 40.0 mg/kg/injection, schedule: Q01DX001 (ip), vehicle: saline): 110 % of control
- T/C (endpoint: mean survival time, dose: 79.5 mg/kg/injection, schedule: Q01DX Z (ip), vehicle: carboxymethylcellulose (CMC)): 113 % of control
- T/C (endpoint: mean survival time, dose: 80.0 mg/kg/injection, schedule: Q01DX001 (ip), vehicle: saline): 100 % of control
- T/C (endpoint: median survival time, dose: 25.0 mg/kg/injection, schedule: Q04DX003 (ip), vehicle: saline): 95 % of control
- T/C (endpoint: median survival time, dose: 50.0 mg/kg/injection, schedule: Q04DX003 (ip), vehicle: saline): 107 % of control
- T/C (endpoint: median survival time, dose: 100.0 mg/kg/injection, schedule: Q04DX003 (ip), vehicle: saline): 108 % of control
- T/C (endpoint: median survival time, dose: 200.0 mg/kg/injection, schedule: Q04DX003 (ip), vehicle: saline): 106 % of control

Compound: COc1ccc(NC(=O)Nc2ccc(C)cc2C)cc1
- T/C (endpoint: mean survival time, dose: 100.0 mg/kg/injection, schedule: Q04DX003 (ip), vehicle: saline with Tween-80): 93 % of control
- T/C (endpoint: mean survival time, dose: 200.0 mg/kg/injection, schedule: Q04DX003 (ip), vehicle: saline with Tween-80): 90 % of control
- T/C (endpoint: mean survival time, dose: 400.0 mg/kg/injection, schedule: Q04DX003 (ip), vehicle: saline with Tween-80): 95 % of control

Compound: CCSc1ncnc2c1ncn2CN1CCOCC1
- T/C (endpoint: mean survival time, dose: 15.0 mg/kg/injection, schedule: Q01DX009 (ip), vehicle: saline): 116 % of control
- T/C (endpoint: mean survival time, dose: 40.0 mg/kg/injection, schedule: Q01DX009 (ip), vehicle: Klucel (hydroxypropylcellulose) (HPC)): 113 % of control
- T/C (endpoint: mean survival time, dose: 45.0 mg/kg/injection, schedule: Q01DX009 (ip), vehicle: saline): 103 % of control and 111 % of control
- T/C (endpoint: mean survival time, dose: 50.0 mg/kg/injection, schedule: Q04DX003 (ip), vehicle: Klucel (hydroxypropylcellulose) (HPC)): 100 % of control
- T/C (endpoint: mean survival time, dose: 60.0 mg/kg/injection, schedule: Q01DX009 (ip), vehicle: Klucel (hydroxypropylcellulose) (HPC)): 116 % of control
- T/C (endpoint: mean survival time, dose: 65.0 mg/kg/injection, schedule: Q01DX009 (ip), vehicle: saline): 103 % of control and 111 % of control
- T/C (endpoint: mean survival time, dose: 66.0 mg/kg/injection, schedule: Q01DX009 (ip), vehicle: saline): 116 % of control
- T/C (endpoint: mean survival time, dose: 100.0 mg/kg/injection, schedule: Q01DX009 (ip), vehicle: saline): 108 % of control
- T/C [1]: 105 % of control
- T/C (endpoint: mean survival time, dose: 100.0 mg/kg/injection, schedule: Q04DX003 (ip), vehicle: saline): 115 % of control
- T/C (endpoint: mean survival time, dose: 120.0 mg/kg/injection, schedule: Q01DX009 (ip), vehicle: saline): 177 % of control
- T/C (endpoint: mean survival time, dose: 150.0 mg/kg/injection, schedule: Q01DX009 (ip), vehicle: saline): 164 % of control and 168 % of control
- T/C (endpoint: mean survival time, dose: 150.0 mg/kg/injection, schedule: Q04DX003 (ip), vehicle: saline): 111 % of control
- T/C (endpoint: mean survival time, dose: 175.0 mg/kg/injection, schedule: Q01DX009 (ip), vehicle: saline): 151 % of control
- T/C (endpoint: mean survival time, dose: 200.0 mg/kg/injection, schedule: Q01DX009 (ip), vehicle: Klucel (hydroxypropylcellulose) (HPC)): 173 % of control
- T/C [2]: 109 % of control
- T/C (endpoint: mean survival time, dose: 220.0 mg/kg/injection, schedule: Q01DX009 (ip), vehicle: saline): 160 % of control
- T/C (endpoint: mean survival time, dose: 220.0 mg/kg/injection, schedule: Q04DX003 (ip), vehicle: saline): 119 % of control
- T/C (endpoint: mean survival time, dose: 225.0 mg/kg/injection, schedule: Q01DX009 (ip), vehicle: saline): 122 % of control
- T/C (endpoint: mean survival time, dose: 265.0 mg/kg/injection, schedule: Q01DX009 (ip), vehicle: saline): 95 % of control
- T/C (endpoint: mean survival time, dose: 330.0 mg/kg/injection, schedule: Q01DX009 (ip), vehicle: saline): 107 % of control
- T/C (endpoint: mean survival time, dose: 400.0 mg/kg/injection, schedule: Q01DX009 (ip), vehicle: saline): 88 % of control

Compound: CC(=O)Nc1c(Cl)c(Cl)c2c(c1Cl)C(O)c1cc(Cl)ccc1-2 (stereo not drawn)
- T/C (endpoint: mean survival time, dose: 100.0 mg/kg/injection, schedule: Q01DX001 (ip), vehicle: carboxymethylcellulose (CMC)): 103 % of control
- T/C (endpoint: mean survival time, dose: 200.0 mg/kg/injection, schedule: Q01DX001 (ip), vehicle: carboxymethylcellulose (CMC)): 97 % of control
- T/C (endpoint: mean survival time, dose: 400.0 mg/kg/injection, schedule: Q01DX001 (ip), vehicle: carboxymethylcellulose (CMC)): 114 % of control

Compound: CC(C)(Cc1c[nH]c2ccccc12)NC(=O)c1ccccc1
- T/C (endpoint: mean survival time, dose: 100.0 mg/kg/injection, schedule: Q01DX009 (ip), vehicle: Klucel (hydroxypropylcellulose) (HPC)): 90 % of control
- T/C [1]: 100 % of control
- T/C [2]: 98 % of control
- T/C (endpoint: mean survival time, dose: 400.0 mg/kg/injection, schedule: Q01DX009 (ip), vehicle: Klucel (hydroxypropylcellulose) (HPC)): 92 % of control
- T/C (endpoint: mean survival time, dose: 400.0 mg/kg/injection, schedule: Q04DX003 (ip), vehicle: Klucel (hydroxypropylcellulose) (HPC)): 98 % of control

Compound: C[CH2][Hg][I]
- T/C (endpoint: mean survival time, dose: 25.0 mg/kg/injection, schedule: Q04DX002 (ip), vehicle: saline with Tween-80): 95 % of control
- T/C (endpoint: mean survival time, dose: 50.0 mg/kg/injection, schedule: Q04DX002 (ip), vehicle: saline with Tween-80): 97 % of control
